Reference: patent US7816522B2, “Triazolone derivatives” (Eisai Co., Ltd., priority 2006, dated 2010)
pIC50: −log10 of the molar value. Counter-ions that a name gives are not always drawn.

Target: T1, human clotting factor VIIa (Homo sapiens, UniProt P08709)
T1 construct: a human clotting factor VIIa (hereinafter, “Factor VIIa”) purified sample; purchased Enzyme Research Laboratories HFVIIa
Assay: Inhibitory activity against clotting factor VIIa (chromogenic substrate Spectrozyme FVIIa, TF/Factor VIIa enzyme solution)
Format: biochemical
Conditions: human Factor VIIa 5 nmol/L with human TF 10 nmol/L, room temperature 40 minutes, 405 nm
Outline: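 Human Factor VIIa (5 nmol/L) with human TF (10 nmol/L) in Tris-BSA buffer pH 7.4 containing 15 mmol/L CaCl2 and cephalin, with Spectrozyme FVIIa substrate. Reaction 40 min at room temperature; 4-nitroanilide read at 405 nm. IC50 by non-linear regression over 100 μmol/L–0.1 nmol/L.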

T1 sequence (P08709 213-466 limits assumed): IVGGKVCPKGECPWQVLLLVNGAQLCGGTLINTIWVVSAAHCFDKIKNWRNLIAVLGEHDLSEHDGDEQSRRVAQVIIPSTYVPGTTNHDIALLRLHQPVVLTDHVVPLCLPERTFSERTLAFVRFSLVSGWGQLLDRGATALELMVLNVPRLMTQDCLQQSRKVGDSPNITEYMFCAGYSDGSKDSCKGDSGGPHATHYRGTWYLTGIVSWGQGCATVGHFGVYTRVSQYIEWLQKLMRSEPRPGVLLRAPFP
T1 sequence (P08709 61-212 limits assumed): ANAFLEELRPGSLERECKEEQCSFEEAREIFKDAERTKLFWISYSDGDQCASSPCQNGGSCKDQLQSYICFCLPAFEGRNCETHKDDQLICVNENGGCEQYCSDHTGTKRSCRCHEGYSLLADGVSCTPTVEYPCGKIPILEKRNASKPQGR
T1 sequence (P13726 33-295 partner): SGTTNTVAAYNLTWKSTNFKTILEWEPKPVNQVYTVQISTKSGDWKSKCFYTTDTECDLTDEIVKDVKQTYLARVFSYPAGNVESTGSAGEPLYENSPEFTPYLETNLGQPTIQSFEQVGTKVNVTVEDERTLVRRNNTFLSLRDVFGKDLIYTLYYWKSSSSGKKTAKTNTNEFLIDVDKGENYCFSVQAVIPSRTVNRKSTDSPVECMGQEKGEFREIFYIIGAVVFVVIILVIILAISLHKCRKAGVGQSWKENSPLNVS

SMILES | pIC50
CCc1cc(C(Nc2ccc(C(=N)N)cc2)c2nn(-c3ncsc3C(=O)O)c(=O)[nH]2)cc2c1OCOC2 (racemic) [Example 179, (R) and (S)-4-{3-[(4-carbamimidoylphenylamino)-(8-ethyl-4H-benzo[1,3]dioxin-6-yl)methyl]-5-oxo-4,5-dihydro-[1,2,4]triazol-1-yl}thiazole-5-carboxylic acid] | 8.00
COc1cc(C(Nc2ccc(C(=N)N)cc2)c2nn(-c3ncccc3F)c(=O)[nH]2)cc2c1OCCCO2 (racemic) [Example 30, (R) and (S)-4-({[1-(3-fluoropyridin-2-yl)-5-oxo-4,5-dihydro-1H-[1,2,4]triazol-3-yl]-(9-methoxy-3,4-dihydro-2H-benzo[b][1,4]dioxepin-7-yl)methyl}amino)benzamidine acetate] | 8.41
Cc1cc(C(Nc2ccc(C(=N)N)cc2)c2nn(-c3ncccn3)c(=O)[nH]2)cc2c1OCOC2 (racemic) [Example 97, 4-{[(R) and (S)-(8-methyl-4H-benzo[1,3]dioxin-6-yl)-(5-oxo-1-pyrimidin-2-yl-4,5-dihydro-1H-[1,2,4]triazol-3-yl)methyl]amino}benzamidine acetate] | 7.95
COc1cc(C(Nc2ccc(C(=N)N)cc2)c2nn(-c3ncccc3N)c(=O)[nH]2)c(F)c2c1OCC2 (racemic) [Example 52, (R) and (S)-4-({[1-(3-aminopyridin-2-yl)-5-oxo-4,5-dihydro-1H-[1,2,4]triazol-3-yl]-(4-fluoro-7-methoxy-2,3-dihydrobenzofuran-5-yl)methyl}amino)benzamidine diacetate] | 8.28
Cc1cc(O[C@@H]2CCOC2)cc(C(Nc2ccc(C(=N)N)cc2)c2nn(-c3ncccn3)c(=O)[nH]2)c1 (mixture of isomers) [Example 59, 4-[((R) and (S)-{3-methyl-5-[(R)-(tetrahydrofuran-3-yl)oxy]phenyl}-(5-oxo-1-pyrimidin-2-yl-4,5-dihydro-1H-[1,2,4]triazol-3-yl)methyl)amino]benzamidine acetate] | 8.35
COc1cc(C(Nc2ccc(C(=N)N)cc2)c2nn(-c3ccsc3C(=O)O)c(=O)[nH]2)c(F)c2c1OCCO2 (racemic) [Example 168, (R) and (S)-3-{3-[(4-carbamimidoylphenylamino)-(5-fluoro-8-methoxy-2,3-dihydrobenzo[1,4]dioxin-6-yl)methyl]-5-oxo-4,5-dihydro-[1,2,4]triazol-1-yl}thiophene-2-carboxylic acid] | 8.55
COc1cc(C(Nc2ccc(C(=N)N)cc2)c2nn(-c3ncccc3N)c(=O)[nH]2)cc2c1OCCCO2 (racemic) [Example 34, (R) and (S)-4-({[1-(3-aminopyridin-2-yl)-5-oxo-4,5-dihydro-1H-[1,2,4]triazol-3-yl]-(9-methoxy-3,4-dihydro-2H-benzo[b][1,4]dioxepin-7-yl)methyl}amino)benzamidine acetate] | 8.52
CCOc1cc(O)cc(C(Nc2ccc(C(=N)N)cc2)c2nn(-c3ncccn3)c(=O)[nH]2)c1 (racemic) [Example 221, 4-{[(3-Ethoxy-5-hydroxyphenyl)-(5-oxo-1-pyrimidin-2-yl-4,5-dihydro-1H-[1,2,4]triazol-3-yl)methyl]amino}benzamidine] | 7.59
COc1cc(O)c(F)c(C(Nc2ccc(C(=N)N)cc2)c2nn(-c3ncccn3)c(=O)[nH]2)c1 (stereo not drawn) [Example 224, 4-{[(2-Fluoro-3-hydroxy-5-methoxyphenyl)-(5-oxo-1-pyrimidin-2-yl-4,5-dihydro-1H-[1,2,4]triazol-3-yl)methyl]amino}benzamidine acetate] | 7.31
COc1cc(C(Nc2ccc(C(=N)N)cc2)c2nn(-c3ncccc3N)c(=O)[nH]2)c(F)c2c1OCCC2 (stereo not drawn) [Example 209, 4-{[[1-(3-Aminopyridin-2-yl)-5-oxo-4,5-dihydro-1H-[1,2,4]triazol-3-yl]-(5-fluoro-8-methoxychroman-6-yl)methyl]amino}benzamidine trifluoroacetate] | 8.40
CCOc1cc(OCCO)cc(C(Nc2ccc(C(=N)N)cc2)c2nn(-c3ncccn3)c(=O)[nH]2)c1 (racemic) [Example 220, 4-{[[3-Ethoxy-5-(2-hydroxyethoxy)phenyl]-(5-oxo-1-pyrimidin-2-yl-4,5-dihydro-1H-[1,2,4]triazol-3-yl)methyl]amino}benzamidine] | 8.14
COc1cc(C(Nc2ccc(C(=N)N)cc2)c2nn(-c3ncsc3C(=O)O)c(=O)[nH]2)c(F)c2c1OCOC2 (racemic) [Example 165, (R) and (S)-4-{3-[(4-carbamimidoylphenylamino)-(5-fluoro-8-methoxy-4H-benzo[1,3]dioxin-6-yl)methyl]-5-oxo-4,5-dihydro-[1,2,4]triazol-1-yl}thiazole-5-carboxylic acid] | 7.59
COc1cc(OCF)cc(C(Nc2ccc(C(=N)N)cc2)c2nn(-c3ncccn3)c(=O)[nH]2)c1 (racemic) [Example 104, 4-{[(R) and (S)-(3-fluoromethoxy-5-methoxyphenyl)-(5-oxo-1-pyrimidin-2-yl-4,5-dihydro-1H-[1,2,4]triazol-3-yl)methyl]amino}benzamidine acetate] | 8.05
Cc1cc(O[C@H]2CCOC2)cc(C(Nc2ccc(C(=N)N)cc2)c2nn(-c3ncccn3)c(=O)[nH]2)c1 (mixture of isomers) [Example 58, 4-[((R) and (S)-{3-methyl-5-[(S)-(tetrahydrofuran-3-yl)oxy]phenyl}-(5-oxo-1-pyrimidin-2-yl-4,5-dihydro-1H-[1,2,4]triazol-3-yl)methyl)amino]benzamidine acetate] | 8.47
CCc1cc(OCCOC)cc(C(Nc2ccc(C(=N)N)cc2)c2nn(-c3ncccn3)c(=O)[nH]2)c1 (racemic) [Example 76, (R) and (S)-4-({[3-ethyl-5-(2-methoxyethoxy)phenyl]-(5-oxo-1-pyrimidin-2-yl-4,5-dihydro-1H-[1,2,4]triazol-3-yl)methyl}amino)benzamidine trifluoroacetate] | 8.28

Now from value to compound:

pIC50 | SMILES
8.17 | COc1cc(F)c(C(Nc2ccc(C(=N)N)cc2)c2nn(-c3ncccc3F)c(=O)[nH]2)cc1OC (racemic) [Example 184, (R) and (S)-4-({(2-fluoro-4,5-dimethoxyphenyl)-[1-(3-fluoropyridin-2-yl)-5-oxo-4,5-dihydro-1H-[1,2,4]triazol-3-yl]methyl}amino)benzamidine acetate]
8.14 | COc1ccccc1-n1nc(C(Nc2ccc(C(=N)N)cc2)c2cc(C)c(OC)c(C)c2)[nH]c1=O (stereo not drawn) [Example 112, 4-({(4-methoxy-3,5-dimethylphenyl)-[1-(2-methoxyphenyl)-5-oxo-4,5-dihydro-1H-[1,2,4]triazol-3-yl]methyl}amino)benzamidine acetate]
8.10 | COc1cc(F)c(C(Nc2ccc(C(=N)N)cc2)c2nn(-c3ccccc3C(N)=O)c(=O)[nH]2)cc1OC (racemic) [Example 109, (R) and (S)-2-{3-[(4-carbamimidoylphenylamino)-(2-fluoro-4,5-dimethoxyphenyl)methyl]-5-oxo-4,5-dihydro-1H-[1,2,4]triazol-1-yl}benzamide acetate]
8.21 | COc1cc(C(Nc2ccc(C(=N)N)cc2)c2nn(-c3ncccc3C(=O)O)c(=O)[nH]2)c(F)c2c1OCCCO2 (racemic) [Example 176, (R) and (S)-2-{3-[(4-carbamimidoylphenylamino)-(6-fluoro-9-methoxy-3,4-dihydro-2H-benzo[b][1,4]dioxepin-7-yl)methyl]-5-oxo-4,5-dihydro-[1,2,4]triazol-1-yl}nicotinic acid]
8.07 | COc1cc(C(Nc2ccc(C(=N)N)cc2)c2nn(-c3cccnn3)c(=O)[nH]2)cc(OC)c1OC (racemic) [Example 88, 4-{[(R) and (S)-(5-oxo-1-pyridazin-3-yl-4,5-dihydro-1H-[1,2,4]triazol-3-yl)-(3,4,5-trimethoxyphenyl)methyl]amino}benzamidine trifluoroacetate]
8.21 | COCCOc1ccc(C(Nc2ccc(C(=N)N)cc2)c2nn(-c3ccsc3C(=O)O)c(=O)[nH]2)cc1OC (racemic) [Example 195, 3-(3-{(R) and (S)-(4-Carbamimidoylphenylamino)-[3-methoxy-4-(2-methoxyethoxy)phenyl]methyl}-5-oxo-4,5-dihydro-[1,2,4]triazol-1-yl)thiophene-2-carboxylic acid]
8.46 | COc1cc(C(Nc2ccc(C(=N)N)cc2)c2nn(-c3ccccc3C(N)=O)c(=O)[nH]2)cc2c1OCCCO2 (racemic) [Example 214, (R) and (S)-2-{3-[(4-Carbamimidoylphenylamino)-(9-methoxy-3,4-dihydro-2H-benzo[b][1,4]dioxepin-7-yl)methyl]-5-oxo-4,5-dihydro[1,2,4]triazol-1-yl}benzoic acid amide acetate]
8.89 | COc1ccccc1-n1nc(C(Nc2ccc(C(=N)N)cc2)c2cc3c(c(OC)c2)OCOC3)[nH]c1=O (racemic) [Example 95, 4-({(R) and (S)-(8-methoxy-4H-benzo[1,3]dioxin-6-yl)-[1-(2-methoxyphenyl)-5-oxo-4,5-dihydro-1H-[1,2,4]triazol-3-yl]methyl}amino)benzamidine acetate]
8.36 | COc1ccc(C(Nc2ccc(C(=N)N)c(F)c2)c2nn(-c3ccccc3C(=O)O)c(=O)[nH]2)cc1OC (racemic) [Example 37, (R) and (S)-2-{3-[(4-carbamimidoyl-3-fluorophenylamino)-(3,4-dimethoxyphenyl)methyl]-5-oxo-4,5-dihydro-[1,2,4]triazol-1-yl}benzoic acid acetate]
